Tests used:
[1] = target: T1, human LXR beta (Homo sapiens, UniProt P55055); experiment: Radioligand binding assay (scintillation proximity), LXR beta-LBD; details: LXR beta-LBD on SPA beads, read-out: LXRbeta Binding IC50
T1 construct: human LXR beta (aa 155 to 460); made in house; host or cells: E. coli BL21 (pLysS)
T1 sequence (P55055 155-460): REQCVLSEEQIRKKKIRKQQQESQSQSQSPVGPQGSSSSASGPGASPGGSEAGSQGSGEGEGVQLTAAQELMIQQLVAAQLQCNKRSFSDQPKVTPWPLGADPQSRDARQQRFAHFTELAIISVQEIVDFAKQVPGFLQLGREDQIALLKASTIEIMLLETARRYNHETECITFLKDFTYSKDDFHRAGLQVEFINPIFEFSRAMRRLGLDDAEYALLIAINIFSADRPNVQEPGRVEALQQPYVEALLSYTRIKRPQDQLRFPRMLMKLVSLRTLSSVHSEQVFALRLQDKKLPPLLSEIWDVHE
Procedure: (§1) The following tests were carried out in order to determine the activity of the compounds of the present invention. […] Mammalian expression vectors were constructed to express full-length human LXR alpha and LXR beta. […] To accomplish this, the portions of the sequences encoding the LBDs were amplified from the full-length clones by PCR and then subcloned into the plasmid vectors.
(§2) Induction, expression, and purification of LBD proteins were performed in E. coli strain BL21 (pLysS) cells by standard methods (Ref: Current Protocols in Molecular Biology, Wiley Press, edited by Ausubel et al).
(§3) Radioligand Binding Assay
(§4) LXR alpha and LXR beta receptor binding were assayed in buffer consisting of 50 mM HEPES, pH 7.4, 10 mM NaCl, 5 mM MgCl2. For each 96-well reaction, 500 ng of LXRα-LBD or 700 ng of LXR beta-LBD proteins were bound to 80 μg or 40 μg SPA beads respectively, in a final volume of 50 μl by shaking. The resulting slurry was incubated for 1 h at RT and centrifuged for 2 min at 1300×g. The supernatant containing unbound protein was removed, and the semi-dry pellet containing the receptor-coated beads was re-suspended in 50 μl of buffer. Radioligand (eg. 100,000 dpm of (N-(2,2,2-trifluoroethyl)-N-[4-(2,2,2-trifluoro-1-hydroxy-1-trifluoromethylethyl)-phenyl]-benzenesulfonamide)) was added, and the reaction incubated at RT for 1 h in the presence of test compounds, and then scintillation proximity counting was performed. All binding assays were performed in 96-well plates and the amount of bound ligand was measured on a Packard TopCount using OptiPlates (Packard). Dose response curves were measured within a range of concentration from 10^−10 M to 10^−4 M.

[2] = target: T2, human LXR alpha (Homo sapiens, UniProt Q13133); experiment: Radioligand binding assay (scintillation proximity), LXRα-LBD; details: LXRα-LBD on SPA beads, read-out: LXRalpha Binding IC50
T2 construct: human LXR alpha (aa 164 to 447); made in house; host or cells: E. coli BL21 (pLysS)
T2 sequence (Q13133 164-447): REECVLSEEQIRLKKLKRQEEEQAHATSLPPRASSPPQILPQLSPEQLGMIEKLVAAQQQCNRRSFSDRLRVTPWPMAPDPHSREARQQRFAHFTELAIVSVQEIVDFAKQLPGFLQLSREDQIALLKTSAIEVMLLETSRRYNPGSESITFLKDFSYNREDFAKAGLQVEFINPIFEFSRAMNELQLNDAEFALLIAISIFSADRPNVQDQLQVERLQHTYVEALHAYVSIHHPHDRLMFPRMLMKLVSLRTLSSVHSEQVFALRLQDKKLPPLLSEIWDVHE
Procedure: as §1, §2, §3, §4

Structure (SMILES)	IC50 [1]	IC50 [2]
CS(=O)(=O)c1cccc(-c2ccc(CN(CC3CC3)S(=O)(=O)c3ccccc3C(F)(F)F)s2)c1 [Example 32, N-Cyclopropylmethyl-N-[5-(3-methanesulfonyl-phenyl)-thiophen-2-ylmethyl]-2-trifluoromethyl-benzenesulfonamide]	106 nM	845 nM
CC(C)CN(Cc1ccc(-c2cccc(S(C)(=O)=O)c2)s1)S(=O)(=O)c1cccs1 [Example 21, Thiophene-2-sulfonic acid isobutyl-[5-(3-methanesulfonyl-phenyl)-thiophen-2-ylmethyl]-amide]	140 nM	605 nM
CS(=O)(=O)c1cccc(-c2ncc(CN(Cc3ccccc3)S(=O)(=O)c3ccccc3Cl)s2)c1 [Example 10, N-Benzyl-2-chloro-N-[2-(3-methanesulfonyl-phenyl)-thiazol-5-ylmethyl]-benzenesulfonamide]	56.5 nM	2700 nM
CCS(=O)(=O)N(Cc1ccc(-c2cccc(S(C)(=O)=O)c2)s1)CC(C)C [Example 16, Ethanesulfonic acid isobutyl-[5-(3-methanesulfonyl-phenyl)-thiophen-2-ylmethyl]-amide]	2860 nM	25000 nM
CC(C)CN(Cc1cccc(-c2cccc(S(C)(=O)=O)c2)n1)S(=O)(=O)c1ccccc1Cl [Example 47, 2-Chloro-N-isobutyl-N-[6-(3-methanesulfonyl-phenyl)-pyridin-2-ylmethyl]-benzenesulfonamide]	49.5 nM	1480 nM
CC(C)CN(Cc1ccc(-c2cccc(S(C)(=O)=O)c2)s1)S(=O)(=O)c1cccc(Cl)c1F [Example 22, 3-Chloro-2-fluoro-N-isobutyl-N-[5-(3-methanesulfonyl-phenyl)-thiophen-2-ylmethyl]-benzenesulfonamide]	22.5 nM	1380 nM
CC(C)CN(Cc1ccc(-c2cccc(S(C)(=O)=O)c2)s1)S(=O)(=O)C(F)(F)F [Example 20, Trifluoro-N-isobutyl-N-[5-(3-methanesulfonyl-phenyl)-thiophen-2-ylmethyl]-methanesulfonamide]	270 nM	3750 nM
CS(=O)(=O)c1cccc(-c2nnc(CN(Cc3ccccc3)S(=O)(=O)c3ccccc3C(F)(F)F)o2)c1 [Example 3, N-Benzyl-N-[5-(3-methanesulfonyl-phenyl)-[1,3,4]oxadiazol-2-ylmethyl]-2-trifluoromethyl-benzenesulfonamide]	5410 nM	5720 nM
CC(C)CN(Cc1cccc(-c2cccc(S(C)(=O)=O)c2)c1)S(=O)(=O)c1ccccc1Cl [Example 43, 2-Chloro-N-isobutyl-N-(3′-methanesulfonyl-biphenyl-3-ylmethyl)-benzenesulfonamide]	19 nM	26 nM
COC(=O)c1ccccc1S(=O)(=O)N(Cc1ccc(-c2cccc(S(C)(=O)=O)c2)s1)CC(C)C [Example 19, 2-{Isobutyl-[5-(3-methanesulfonyl-phenyl)-thiophen-2-ylmethyl]-sulfamoyl}-benzoic acid methyl ester]	59 nM	2630 nM
CC(C)S(=O)(=O)N(Cc1cccc(-c2cccc(S(C)(=O)=O)c2)c1)CC1CCC1 [Example 51, Propane-2-sulfonic acid cyclobutylmethyl-(3′-methanesulfonyl-biphenyl-3-ylmethyl)-amide]	280 nM	1630 nM
CS(=O)(=O)c1cccc(-c2ccc(CN(Cc3ccccc3)S(=O)(=O)c3cccc(Cl)c3)s2)c1 [Example 7, N-Benzyl-3-chloro-N-[5-(3-methanesulfonyl-phenyl)-thiophen-2-ylmethyl]-benzenesulfonamide]	1510 nM	4280 nM
CS(=O)(=O)Nc1cccc(-c2ccc(CN(Cc3ccccc3)S(=O)(=O)c3ccccc3C(F)(F)F)s2)c1 [Example 2, N-Benzyl-N-[5-(3-methanesulfonylamino-phenyl)-thiophen-2-ylmethyl]-2-trifluoromethyl-benzenesulfonamide]	126 nM	170 nM
CS(=O)(=O)c1cccc(-c2ccc(CN(CCN3CCCC3)S(=O)(=O)c3ccccc3C(F)(F)F)s2)c1 [Example 40, N-[5-(3-Methanesulfonyl-phenyl)-thiophen-2-ylmethyl]-N-(2-pyrrolidin-1-yl-ethyl)-2-trifluoromethyl-benzenesulfonamide]	285 nM	10700 nM
CC(C)CN(Cc1cnc(-c2cccc(S(C)(=O)=O)c2)s1)S(=O)(=O)c1ccccc1Cl [Example 11, 2-Chloro-N-isobutyl-N-[2-(3-methanesulfonyl-phenyl)-thiazol-5-ylmethyl]-benzenesulfonamide]	170 nM	8780 nM
CS(=O)(=O)c1cccc(-c2ncc(CN(C(=O)c3ccccc3)S(=O)(=O)c3ccccc3Cl)s2)c1 [Example 12, N-Benzoyl-2-chloro-N-[2-(3-methanesulfonyl-phenyl)-thiazol-5-ylmethyl]-benzenesulfonamide]	120 nM	27300 nM
CC(C)CN(Cc1ccc(-c2cccc(S(C)(=O)=O)c2)cn1)S(=O)(=O)c1ccccc1Cl [Example 45, 2-Chloro-N-isobutyl-N-[5-(3-methanesulfonyl-phenyl)-pyridin-2-ylmethyl]-benzenesulfonamide]	2.3 nM	425 nM
CCCN(Cc1ccc(-c2cccc(S(C)(=O)=O)c2)s1)S(=O)(=O)c1ccccc1C(F)(F)F [Example 29, N-[5-(3-Methanesulfonyl-phenyl)-thiophen-2-ylmethyl]-N-propyl-2-trifluoromethyl-benzenesulfonamide]	104 nM	2460 nM
CC(C)CN(Cc1ccc(-c2cccc(S(C)(=O)=O)c2)s1)S(=O)(=O)c1c(Cl)cccc1Cl [Example 18, 2,6-Dichloro-N-isobutyl-N-[5-(3-methanesulfonyl-phenyl)-thiophen-2-ylmethyl]-benzenesulfonamide]	82 nM	1440 nM
CS(=O)(=O)c1cccc(-c2ccc(CN(CC3OCCO3)S(=O)(=O)c3ccccc3C(F)(F)F)s2)c1 [Example 39, N-[1,3]Dioxolan-2-ylmethyl-N-[5-(3-methanesulfonyl-phenyl)-thiophen-2-ylmethyl]-2-trifluoromethyl-benzenesulfonamide]	47 nM	820 nM
CC(C)S(=O)(=O)N(Cc1cccc(-c2cccc(S(C)(=O)=O)c2)c1)Cc1ccccc1F [Example 52, Propane-2-sulfonic acid (2-fluoro-benzyl)-(3′-methanesulfonyl-biphenyl-3-ylmethyl)-amide]	33.5 nM	610 nM
CC(C)CN(Cc1cccc(-c2cccc(S(C)(=O)=O)c2)c1)S(=O)(=O)C(C)C [Example 50, Propane-2-sulfonic acid isobutyl-(3′-methanesulfonyl-biphenyl-3-ylmethyl)-amide]	805 nM	2270 nM
CS(=O)(=O)c1cccc(-c2ccc(CN(CC3CCC3)S(=O)(=O)c3ccccc3C(F)(F)F)s2)c1 [Example 36, N-Cyclobutylmethyl-N-[5-(3-methanesulfonyl-phenyl)-thiophen-2-ylmethyl]-2-trifluoromethyl-benzenesulfonamide]	17.5 nM	665 nM
COc1ccc(Cl)cc1S(=O)(=O)N(Cc1ccc(-c2cccc(S(C)(=O)=O)c2)s1)CC(C)C [Example 23, 5-Chloro-N-isobutyl-N-[5-(3-methanesulfonyl-phenyl)-thiophen-2-ylmethyl]-2-methoxy-benzenesulfonamide]	19 nM	1520 nM
CS(=O)(=O)c1cccc(-c2ccc(CN(Cc3ccccc3)S(=O)(=O)c3ccccc3Cl)s2)c1 [Example 4, N-Benzyl-2-chloro-N-[5-(3-methanesulfonyl-phenyl)-thiophen-2-ylmethyl]-benzenesulfonamide]	123 nM	685 nM
